Patent publication US7994209B2, “3-phenoxymethylpyrrolidine compounds” (Theravance, Inc., priority 2009, dated 2011)

Target: T1, hSERT (Homo sapiens, UniProt P31645)
Assay: hSERT neurotransmitter uptake assay (3H-5-HT), Assay 2
Type: cell-based
Set-up: expressed in transfected cells; host or cells: HEK-293
Settings: serotonin reuptake inhibition, 3H-5-HT uptake, HEK-293 hSERT cells (values without asterisk); read-out: SERT pIC50 (converted)

T1 sequence (P31645 whole entry): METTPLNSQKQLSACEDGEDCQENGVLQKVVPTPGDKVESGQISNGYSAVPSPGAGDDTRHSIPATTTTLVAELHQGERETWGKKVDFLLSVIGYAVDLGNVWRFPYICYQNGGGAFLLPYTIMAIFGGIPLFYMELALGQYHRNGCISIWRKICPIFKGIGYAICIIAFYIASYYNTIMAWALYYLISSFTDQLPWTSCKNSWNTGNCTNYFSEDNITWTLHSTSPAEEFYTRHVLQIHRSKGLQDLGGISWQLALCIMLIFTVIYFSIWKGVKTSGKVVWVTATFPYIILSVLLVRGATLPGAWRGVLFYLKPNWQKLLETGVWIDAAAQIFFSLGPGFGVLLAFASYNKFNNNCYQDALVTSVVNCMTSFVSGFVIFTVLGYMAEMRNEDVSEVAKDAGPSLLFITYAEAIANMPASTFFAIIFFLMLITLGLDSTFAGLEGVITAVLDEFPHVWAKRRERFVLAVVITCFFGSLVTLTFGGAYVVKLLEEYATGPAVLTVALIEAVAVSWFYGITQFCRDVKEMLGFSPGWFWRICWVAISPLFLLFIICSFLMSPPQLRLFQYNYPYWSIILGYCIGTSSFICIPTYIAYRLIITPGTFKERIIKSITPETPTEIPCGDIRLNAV

| IC50 [nM] | Structure (SMILES) |
| --- | --- |
| ≤ 10 | Clc1cccc(O[C@@H](C2CC2)[C@H]2CCNC2)c1Cl [Example 16-8, (S)-3-[(S)cyclopropyl-(2,3-dichlorophenoxy)methyl]pyrrolidine] |
| ≤ 100 | Fc1cccc(O[C@@H](C2CC2)[C@H]2CCNC2)c1Cl [Example 16-9, (S)-3-[(S)-(2-Chloro-3-fluorophenoxy)cyclopropylmethyl]pyrrolidine] |
| ≤ 100 | Fc1cccc(O[C@H](C2CC2)[C@H]2CCNC2)c1Cl [Example 16-10, (S)-3-[(R)-(2-Chloro-3-fluorophenoxy)cyclopropylmethyl]pyrrolidine] |
| ≤ 10 | FC(F)(F)c1c(Cl)cccc1O[C@@H](C1CC1)[C@H]1CCNC1 [Example 16-16, (S)-3-[(S)-(3-Chloro-2-trifluoromethylphenoxy)cyclopropylmethyl]pyrrolidine] |
| ≤ 10 | Clc1ccc(O[C@@H](C2CC2)[C@H]2CCNC2)c(Cl)c1 [Example 16-19, (S)-3-[(S)cyclopropyl-(2,4-dichlorophenoxy)methyl]pyrrolidine] |
| ≤ 100 | Fc1ccc(O[C@@H](C2CC2)[C@H]2CCNC2)c(Cl)c1 [Example 16-22, (S)-3-[(S)-(2-Chloro-4-fluorophenoxy)cyclopropylmethyl]pyrrolidine] |
| ≤ 10 | Cc1ccc(O[C@@H](C2CC2)[C@H]2CCNC2)c(Cl)c1 [Example 16-23, (S)-3-[(S)-(2-Chloro-4-methylphenoxy)cyclopropylmethyl]pyrrolidine] |
| ≤ 10 | Cc1ccc(O[C@@H](C2CC2)[C@H]2CCNC2)c(Br)c1 [Example 16-25, (S)-3-[(S)-(2-Bromo-4-methylphenoxy)cyclopropylmethyl]pyrrolidine] |
| ≤ 10 | Cc1ccc(O[C@@H](C2CC2)[C@H]2CCNC2)c(C)c1 [Example 16-28, (S)-3-[(S)cyclopropyl-(2,4-dimethylphenoxy)-methyl]pyrrolidine] |
| ≤ 10 | Cc1cc(Cl)ccc1O[C@@H](C1CC1)[C@H]1CCNC1 [Example 16-29, (S)-3-[(S)-(4-Chloro-2-methylphenoxy)cyclopropylmethyl]pyrrolidine] |
| ≤ 100 | CCc1cc(F)ccc1O[C@H](C1CC1)[C@H]1CCNC1 [Example 16-33, (S)-3-[(R)cyclopropyl-(2-ethyl-4-fluorophenoxy)-methyl]pyrrolidine] |
| ≤ 10 | CCc1cc(F)ccc1O[C@@H](C1CC1)[C@H]1CCNC1 [Example 16-34, (S)-3-[(S)cyclopropyl-(2-ethyl-4-fluorophenoxy)-methyl]pyrrolidine] |
| ≤ 10 | COc1cc(Cl)ccc1O[C@@H](C1CC1)[C@H]1CCNC1 [Example 16-37, (S)-3-[(S)-(4-Chloro-2-methoxyphenoxy)cyclopropylmethyl]pyrrolidine] |
| ≤ 10 | COc1cc(Cl)ccc1O[C@H](C1CC1)[C@H]1CCNC1 [Example 16-38, (S)-3-[(R)-(4-Chloro-2-methoxyphenoxy)cyclopropylmethyl]pyrrolidine] |

Target: T2, hNET (Homo sapiens, UniProt P23975)
T2 sequence (P23975 whole entry): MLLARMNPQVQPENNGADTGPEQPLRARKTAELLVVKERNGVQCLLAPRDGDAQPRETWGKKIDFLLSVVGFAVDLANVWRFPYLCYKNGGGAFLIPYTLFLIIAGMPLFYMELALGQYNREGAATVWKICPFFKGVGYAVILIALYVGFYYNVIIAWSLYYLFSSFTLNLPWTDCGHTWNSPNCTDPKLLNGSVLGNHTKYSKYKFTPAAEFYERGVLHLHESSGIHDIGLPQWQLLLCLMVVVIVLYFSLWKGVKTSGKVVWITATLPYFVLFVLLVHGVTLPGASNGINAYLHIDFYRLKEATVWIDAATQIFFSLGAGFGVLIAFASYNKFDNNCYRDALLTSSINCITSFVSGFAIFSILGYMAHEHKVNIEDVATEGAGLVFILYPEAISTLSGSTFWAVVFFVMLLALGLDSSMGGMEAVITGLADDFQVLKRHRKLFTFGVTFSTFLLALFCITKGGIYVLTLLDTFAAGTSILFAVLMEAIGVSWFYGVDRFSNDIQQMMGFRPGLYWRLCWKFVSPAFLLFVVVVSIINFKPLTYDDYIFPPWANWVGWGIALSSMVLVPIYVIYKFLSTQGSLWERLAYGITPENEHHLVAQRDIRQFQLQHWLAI
Assay: hNET membrane radioligand binding assay (3H-nisoxetine), Assay 1
Settings: not given

| Ki [nM] | Structure (SMILES) |
| --- | --- |
| ≤ 10 | Clc1cccc(O[C@@H](C2CC2)[C@H]2CCNC2)c1Cl [Example 16-8, (S)-3-[(S)cyclopropyl-(2,3-dichlorophenoxy)methyl]pyrrolidine] |
| ≤ 10 | Fc1cccc(O[C@@H](C2CC2)[C@H]2CCNC2)c1Cl [Example 16-9, (S)-3-[(S)-(2-Chloro-3-fluorophenoxy)cyclopropylmethyl]pyrrolidine] |
| ≤ 10 | Fc1cccc(O[C@H](C2CC2)[C@H]2CCNC2)c1Cl [Example 16-10, (S)-3-[(R)-(2-Chloro-3-fluorophenoxy)cyclopropylmethyl]pyrrolidine] |
| ≤ 10 | FC(F)(F)c1c(Cl)cccc1O[C@@H](C1CC1)[C@H]1CCNC1 [Example 16-16, (S)-3-[(S)-(3-Chloro-2-trifluoromethylphenoxy)cyclopropylmethyl]pyrrolidine] |
| ≤ 10 | Clc1ccc(O[C@@H](C2CC2)[C@H]2CCNC2)c(Cl)c1 [Example 16-19, (S)-3-[(S)cyclopropyl-(2,4-dichlorophenoxy)methyl]pyrrolidine] |
| ≤ 10 | Fc1ccc(O[C@@H](C2CC2)[C@H]2CCNC2)c(Cl)c1 [Example 16-22, (S)-3-[(S)-(2-Chloro-4-fluorophenoxy)cyclopropylmethyl]pyrrolidine] |
| ≤ 10 | Cc1ccc(O[C@@H](C2CC2)[C@H]2CCNC2)c(Cl)c1 [Example 16-23, (S)-3-[(S)-(2-Chloro-4-methylphenoxy)cyclopropylmethyl]pyrrolidine] |
| ≤ 10 | Cc1ccc(O[C@@H](C2CC2)[C@H]2CCNC2)c(Br)c1 [Example 16-25, (S)-3-[(S)-(2-Bromo-4-methylphenoxy)cyclopropylmethyl]pyrrolidine] |
| ≤ 10 | Cc1ccc(O[C@@H](C2CC2)[C@H]2CCNC2)c(C)c1 [Example 16-28, (S)-3-[(S)cyclopropyl-(2,4-dimethylphenoxy)-methyl]pyrrolidine] |
| ≤ 10 | Cc1cc(Cl)ccc1O[C@@H](C1CC1)[C@H]1CCNC1 [Example 16-29, (S)-3-[(S)-(4-Chloro-2-methylphenoxy)cyclopropylmethyl]pyrrolidine] |
| ≤ 10 | CCc1cc(F)ccc1O[C@H](C1CC1)[C@H]1CCNC1 [Example 16-33, (S)-3-[(R)cyclopropyl-(2-ethyl-4-fluorophenoxy)-methyl]pyrrolidine] |
| ≤ 10 | CCc1cc(F)ccc1O[C@@H](C1CC1)[C@H]1CCNC1 [Example 16-34, (S)-3-[(S)cyclopropyl-(2-ethyl-4-fluorophenoxy)-methyl]pyrrolidine] |
| ≤ 10 | COc1cc(Cl)ccc1O[C@@H](C1CC1)[C@H]1CCNC1 [Example 16-37, (S)-3-[(S)-(4-Chloro-2-methoxyphenoxy)cyclopropylmethyl]pyrrolidine] |
| ≤ 10 | COc1cc(Cl)ccc1O[C@H](C1CC1)[C@H]1CCNC1 [Example 16-38, (S)-3-[(R)-(4-Chloro-2-methoxyphenoxy)cyclopropylmethyl]pyrrolidine] |

Target: T1, hSERT
Assay: hSERT membrane radioligand binding assay (3H-citalopram), Assay 1
Settings: SERT pKi, hSERT HEK-293 membranes, 1.0 nM 3H-citalopram; values given as lower bounds

| Ki [nM] | Structure (SMILES) |
| --- | --- |
| ≤ 10 | Clc1cccc(O[C@@H](C2CC2)[C@H]2CCNC2)c1Cl [Example 16-8, (S)-3-[(S)cyclopropyl-(2,3-dichlorophenoxy)methyl]pyrrolidine] |
| ≤ 10 | Fc1cccc(O[C@@H](C2CC2)[C@H]2CCNC2)c1Cl [Example 16-9, (S)-3-[(S)-(2-Chloro-3-fluorophenoxy)cyclopropylmethyl]pyrrolidine] |
| ≤ 10 | Fc1cccc(O[C@H](C2CC2)[C@H]2CCNC2)c1Cl [Example 16-10, (S)-3-[(R)-(2-Chloro-3-fluorophenoxy)cyclopropylmethyl]pyrrolidine] |
| ≤ 10 | FC(F)(F)c1c(Cl)cccc1O[C@@H](C1CC1)[C@H]1CCNC1 [Example 16-16, (S)-3-[(S)-(3-Chloro-2-trifluoromethylphenoxy)cyclopropylmethyl]pyrrolidine] |
| ≤ 10 | Clc1ccc(O[C@@H](C2CC2)[C@H]2CCNC2)c(Cl)c1 [Example 16-19, (S)-3-[(S)cyclopropyl-(2,4-dichlorophenoxy)methyl]pyrrolidine] |
| ≤ 10 | Fc1ccc(O[C@@H](C2CC2)[C@H]2CCNC2)c(Cl)c1 [Example 16-22, (S)-3-[(S)-(2-Chloro-4-fluorophenoxy)cyclopropylmethyl]pyrrolidine] |
| ≤ 10 | Cc1ccc(O[C@@H](C2CC2)[C@H]2CCNC2)c(Cl)c1 [Example 16-23, (S)-3-[(S)-(2-Chloro-4-methylphenoxy)cyclopropylmethyl]pyrrolidine] |
| ≤ 10 | Cc1ccc(O[C@@H](C2CC2)[C@H]2CCNC2)c(Br)c1 [Example 16-25, (S)-3-[(S)-(2-Bromo-4-methylphenoxy)cyclopropylmethyl]pyrrolidine] |
| ≤ 10 | Cc1ccc(O[C@@H](C2CC2)[C@H]2CCNC2)c(C)c1 [Example 16-28, (S)-3-[(S)cyclopropyl-(2,4-dimethylphenoxy)-methyl]pyrrolidine] |
| ≤ 10 | Cc1cc(Cl)ccc1O[C@@H](C1CC1)[C@H]1CCNC1 [Example 16-29, (S)-3-[(S)-(4-Chloro-2-methylphenoxy)cyclopropylmethyl]pyrrolidine] |
| ≤ 100 | CCc1cc(F)ccc1O[C@H](C1CC1)[C@H]1CCNC1 [Example 16-33, (S)-3-[(R)cyclopropyl-(2-ethyl-4-fluorophenoxy)-methyl]pyrrolidine] |
| ≤ 10 | CCc1cc(F)ccc1O[C@@H](C1CC1)[C@H]1CCNC1 [Example 16-34, (S)-3-[(S)cyclopropyl-(2-ethyl-4-fluorophenoxy)-methyl]pyrrolidine] |
| ≤ 10 | COc1cc(Cl)ccc1O[C@@H](C1CC1)[C@H]1CCNC1 [Example 16-37, (S)-3-[(S)-(4-Chloro-2-methoxyphenoxy)cyclopropylmethyl]pyrrolidine] |
| ≤ 10 | COc1cc(Cl)ccc1O[C@H](C1CC1)[C@H]1CCNC1 [Example 16-38, (S)-3-[(R)-(4-Chloro-2-methoxyphenoxy)cyclopropylmethyl]pyrrolidine] |

Target: T2, hNET
Assay: hNET neurotransmitter uptake assay (3H-NE), Assay 2
Type: cell-based
Set-up: expressed in transfected cells; host or cells: HEK-293
Settings: norepinephrine reuptake inhibition, 3H-NE uptake, HEK-293 hNET cells (values without asterisk); read-out: NET pIC50 (converted)

| IC50 [nM] | Structure (SMILES) |
| --- | --- |
| ≤ 10 | Clc1cccc(O[C@@H](C2CC2)[C@H]2CCNC2)c1Cl [Example 16-8, (S)-3-[(S)cyclopropyl-(2,3-dichlorophenoxy)methyl]pyrrolidine] |
| ≤ 10 | Fc1cccc(O[C@@H](C2CC2)[C@H]2CCNC2)c1Cl [Example 16-9, (S)-3-[(S)-(2-Chloro-3-fluorophenoxy)cyclopropylmethyl]pyrrolidine] |
| ≤ 100 | Fc1cccc(O[C@H](C2CC2)[C@H]2CCNC2)c1Cl [Example 16-10, (S)-3-[(R)-(2-Chloro-3-fluorophenoxy)cyclopropylmethyl]pyrrolidine] |
| ≤ 10 | FC(F)(F)c1c(Cl)cccc1O[C@@H](C1CC1)[C@H]1CCNC1 [Example 16-16, (S)-3-[(S)-(3-Chloro-2-trifluoromethylphenoxy)cyclopropylmethyl]pyrrolidine] |
| ≤ 10 | Clc1ccc(O[C@@H](C2CC2)[C@H]2CCNC2)c(Cl)c1 [Example 16-19, (S)-3-[(S)cyclopropyl-(2,4-dichlorophenoxy)methyl]pyrrolidine] |
| ≤ 10 | Fc1ccc(O[C@@H](C2CC2)[C@H]2CCNC2)c(Cl)c1 [Example 16-22, (S)-3-[(S)-(2-Chloro-4-fluorophenoxy)cyclopropylmethyl]pyrrolidine] |
| ≤ 10 | Cc1ccc(O[C@@H](C2CC2)[C@H]2CCNC2)c(Cl)c1 [Example 16-23, (S)-3-[(S)-(2-Chloro-4-methylphenoxy)cyclopropylmethyl]pyrrolidine] |
| ≤ 10 | Cc1ccc(O[C@@H](C2CC2)[C@H]2CCNC2)c(Br)c1 [Example 16-25, (S)-3-[(S)-(2-Bromo-4-methylphenoxy)cyclopropylmethyl]pyrrolidine] |
| ≤ 10 | Cc1ccc(O[C@@H](C2CC2)[C@H]2CCNC2)c(C)c1 [Example 16-28, (S)-3-[(S)cyclopropyl-(2,4-dimethylphenoxy)-methyl]pyrrolidine] |
| ≤ 10 | Cc1cc(Cl)ccc1O[C@@H](C1CC1)[C@H]1CCNC1 [Example 16-29, (S)-3-[(S)-(4-Chloro-2-methylphenoxy)cyclopropylmethyl]pyrrolidine] |
| ≤ 10 | CCc1cc(F)ccc1O[C@H](C1CC1)[C@H]1CCNC1 [Example 16-33, (S)-3-[(R)cyclopropyl-(2-ethyl-4-fluorophenoxy)-methyl]pyrrolidine] |
| ≤ 10 | CCc1cc(F)ccc1O[C@@H](C1CC1)[C@H]1CCNC1 [Example 16-34, (S)-3-[(S)cyclopropyl-(2-ethyl-4-fluorophenoxy)-methyl]pyrrolidine] |
| ≤ 10 | COc1cc(Cl)ccc1O[C@@H](C1CC1)[C@H]1CCNC1 [Example 16-37, (S)-3-[(S)-(4-Chloro-2-methoxyphenoxy)cyclopropylmethyl]pyrrolidine] |
| ≤ 100 | COc1cc(Cl)ccc1O[C@H](C1CC1)[C@H]1CCNC1 [Example 16-38, (S)-3-[(R)-(4-Chloro-2-methoxyphenoxy)cyclopropylmethyl]pyrrolidine] |
